# Measurements published in patent US8119661B2, “Piperidine derivatives and their use as muscarinic receptor modulators” (AstraZeneca AB, priority 2007, dated 2012).
# Legend:
# [1] = target: T1, hM5 (human Muscarinic receptor subtype 5) (Homo sapiens, UniProt P08912); assay: Human M5 calcium mobilization FLIPR assay; type: cell-based; settings: CHO cells expressing hM5, intracellular Ca2+ release
# T1 construct: expressed in transfected cells; host or cells: CHO cells (Chinese hamster ovary cells, ATCC)
# T1 sequence (P08912 1-532): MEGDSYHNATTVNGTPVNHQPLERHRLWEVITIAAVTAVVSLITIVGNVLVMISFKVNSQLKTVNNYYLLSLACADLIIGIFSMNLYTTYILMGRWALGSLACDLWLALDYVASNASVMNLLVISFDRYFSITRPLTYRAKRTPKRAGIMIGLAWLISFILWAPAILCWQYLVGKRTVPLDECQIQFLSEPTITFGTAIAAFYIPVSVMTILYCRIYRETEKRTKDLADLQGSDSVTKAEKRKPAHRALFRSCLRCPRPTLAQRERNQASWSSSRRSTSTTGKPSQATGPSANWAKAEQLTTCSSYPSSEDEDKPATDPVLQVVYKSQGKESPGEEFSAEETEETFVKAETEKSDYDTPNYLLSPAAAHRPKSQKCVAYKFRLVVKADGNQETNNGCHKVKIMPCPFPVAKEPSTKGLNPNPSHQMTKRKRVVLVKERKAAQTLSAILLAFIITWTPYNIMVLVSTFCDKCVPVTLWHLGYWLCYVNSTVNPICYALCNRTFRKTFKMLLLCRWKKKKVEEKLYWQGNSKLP
# Protocol: The compound activity in the present invention (EC50 or IC50) is measured using a 384 plate-based imaging assay that monitors drug induced intracellular Ca^2+ release in whole cells. Activation of hM1 (human Muscarinic receptor subtype 1, gene bank access NM_000738), rM1 (rat Muscarinic receptor subtype 1, gene bank access NM_080773), hM3 (human Muscarinic receptor subtype 3, gene bank access NM_000740NM_000740) and hM5 (human Muscarinic receptor subtype 5, gene bank access NM_0121258), receptors expressed in CHO cells (Chinese hamster ovary cells, ATCC) is quantified in a Molecular Devices FLIPR II™ instrument as an increase in fluorescent signal. Inhibition of hM3 and hM5 by compounds is determined by the decrease in fluorescent signal in response to 2 nM acetylcholine activation.
# Prior to experiment, the cell culture medium is removed from the plates by inversion. […] Plates are incubated at 37° C. for 60 minutes prior to start the experiment. The incubation is terminated by washing the cells four times in assay buffer, leaving a residual 25 μl buffer per well. Cell plates are then transferred to the FLIPR, ready for compound additions.
# The day of experiment, acetylcholine and compounds are diluted in assay buffer in three-fold concentration range (10 points serial dilution) for addition by FLIPR instrument. For all calcium assays, a baseline reading is taken for 10 seconds followed by the addition of 12.5 μl of compounds, resulting in a total well volume of 37.5 μl. Data is collected every second for 60 pictures and then every 6 seconds for 20 pictures prior to the addition of agonist. For hM3 and hM5, before agonist addition, a second baseline reading is taken for 10 seconds followed by the addition of 12.5 μl of agonist or buffer, producing a final volume of 50 μl. After agonist stimulation, the FLIPR continues to collect data every second for 60 pictures and then every 6 seconds for 20 pictures. The fluorescence emission is read using filter 1 (emission 510-570 nm) by the FLIPR on board CCD camera.
# Calcium mobilization output data are calculated as the maximal relative fluorescence unit (RFU) minus the minimal value for both compound and agonist reading frame (except for hM1 and rM1 using only the maximal RFU). Data are analyzed using sigmoidal fits of a non-linear curve-fitting program (XLfit version 4.2.2 Excel add-in version 4.2.2 build 18 math 1Q version 2.1.2 build 18). All pEC50 and pIC50 values are reported as arithmetic means±standard error of mean of ‘n’ independent experiments.
# [2] = target: T2, cloned human M2 receptor (Homo sapiens, UniProt P08172); assay: hM2 receptor GTPγS binding; type: biochemical; settings: CHO membranes expressing hM2, [35S]GTPγS binding
# T2 construct: purchased Perkin-Elmer RBHM2M; host or cells: CHO cell membranes
# T2 sequence (P08172 1-466): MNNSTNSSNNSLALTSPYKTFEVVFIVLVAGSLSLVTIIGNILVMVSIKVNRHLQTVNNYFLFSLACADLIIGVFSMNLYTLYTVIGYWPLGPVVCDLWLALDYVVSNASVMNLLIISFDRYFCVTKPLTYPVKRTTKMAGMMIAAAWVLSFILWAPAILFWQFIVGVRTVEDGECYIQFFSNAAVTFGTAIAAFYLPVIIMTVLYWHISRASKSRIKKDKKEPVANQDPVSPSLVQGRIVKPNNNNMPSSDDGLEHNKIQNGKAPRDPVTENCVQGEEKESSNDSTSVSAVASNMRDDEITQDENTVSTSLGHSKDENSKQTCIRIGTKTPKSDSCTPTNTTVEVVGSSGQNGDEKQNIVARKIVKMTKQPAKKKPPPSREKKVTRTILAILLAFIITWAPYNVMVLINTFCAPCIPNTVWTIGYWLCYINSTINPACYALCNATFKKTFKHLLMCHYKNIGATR
# Protocol: Membranes produced from Chinese hamster ovary cells (CHO) expressing the cloned human M2 receptor (human Muscarinic receptor subtype 2, gene bank access NM_000739), are obtained from Perkin-Elmer (RBHM2M). The membranes are thawed at 37° C., passed 3 times through a 23-gauge blunt-end needle, diluted in the GTPγS binding buffer (50 mM Hepes, 20 mM NaOH, 100 mM NaCl, 1 mM EDTA, 5 mM MgCl2, pH 7.4, 100 μM DTT). The EC50, IC50 and Emax of the compounds of the invention are evaluated from 10-point dose-response curves (three fold concentration range) done in 60 μl in 384-well non-specific binding surface plate (Corning). Ten microliters from the dose-response curves plate (5× concentration) are transferred to another 384 well plate containing 25 μl of the following: 5 μg of hM2 membranes, 500 μg of Flashblue beads (Perkin-Elmer) and GDP 25 μM. An additional 15 μl containing 3.3× (60,000 dpm) of GTPγ^35S (0.4 nM final) are added to the wells resulting in a total well volume of 50 μl. Basal and maximal stimulated [^35S]GTPγS binding are determined in absence and presence of 30 μM final of acetylcholine agonist. The membranes/beads mix are pre-incubated for 15 minutes at room temperature with 25 μM GDP prior to distribution in plates (12.5 μM final). The reversal of acetylcholine-induced stimulation (2 μM final) of [^35S]GTPγS binding is used to assay the antagonist properties (IC50) of the compounds. The plates are incubated for 60 minutes at room temperature then centrifuged at 400 rpm for 5 minutes. The radioactivity (cpm) is counted in a Trilux (Perkin-Elmer).
# Values of EC50, IC50 and Emax are obtained using sigmoidal fits of a non-linear curve-fitting program (XLfit version 4.2.2 Excel add-in version 4.2.2 build 18 math 1Q version 2.1.2 build 18) of percent stimulated [^35S]GTPγS binding vs. log(molar ligand). All pEC50 and pIC50 values are reported as arithmetic means±standard error of mean of ‘n’ independent experiments.
structure (smiles),measurement,setting,value
"CCC(=O)N1CCC(C)(N2CCC(N3C(=O)N[C@H]4CCCC[C@@H]43)CC2)CC1 [Example 18, (3aS,7aS)-3-[1-(4-methyl-1-propanoyl-4-piperidyl)-4-piperidyl]-3a,4,5,6,7,7a-hexahydro-1H-benzimidazol-2-one]",EC50,[1],> 40000 nM
same,EC50,[2],2340 nM
